Experimental data reported in US20230107642A1 (Erasca, Inc., priority 2020, published 2023).

Molecular target: T1, K-Ras G12C (Homo sapiens, UniProt P01116, G12C)
T1 construct: This protein contained 188 amino acids in total, including an N-terminal 6-Histidine tag; made in house; host or cells: E. coli BL21
Experiment: CAF assay (% CAF; method in Example 7, not in this part)
Type: binding
Details: 10 uM compound, 1 h incubation

Question: How did the “% CAF @ 10 uM, 1h” value turn out when C=CC(=O)N1C[C@H](C)N(c2nc(=O)n3c4c(c(-c5ccc(F)cc5)c(Cl)cc24)SC[C@@H]3CN2CCN(C3CC3)CC2)C[C@H]1C [Example 517, (S)-7-((2S,5R)-4-acryloyl-2,5-dimethylpiperazin-1-yl)-9-chloro-3-((4-cyclopropylpiperazin-1-yl)methyl)-10-(4-fluorophenyl)-2H-[1,4]thiazino[2,3,4-ij]quinazolin-5(3H)-one] was run?
Answer: 59.5%

Question: Which “% CAF @ 10 uM, 1h” value does the source give for C=CC(=O)N1CCN(c2nc(=O)n3c4c(c(-c5cc(Cl)c(F)cc5F)c(Cl)cc24)SC[C@H](OC)C3)[C@@H](C)C1 [Example 541, (3R)-8-((S)-4-acryloyl-2-methylpiperazin-1-yl)-10-chloro-11-(5-chloro-2,4-difluorophenyl)-3-methoxy-3,4-dihydro-2H,6H-[1,4]thiazepino[2,3,4-ij]quinazolin-6-one] here?
Answer: 96%

Question: C=CC(=O)N1C[C@H](C)N(c2nc(=O)n3c4c(c(-c5cc(F)c(F)cc5F)c(Cl)cc24)SC[C@@H]3CN2CCC3(CC2)COC3)C[C@H]1C (atropisomer, axis not shown) [Example 484, (3S,10S)-3-((2-oxa-7-azaspiro[3.5]nonan-7-yl)methyl)-7-((2S,5R)-4-acryloyl-2,5-dimethylpiperazin-1-yl)-9-chloro-10-(2,4,5-trifluorophenyl)-2,3-dihydro-5H-[1,4]thiazino[2,3,4-ij]quinazolin-5-one] was tested. Which “% CAF @ 10 uM, 1h” value did it give?
Answer: 77.9%

Question: With C=C(F)C(=O)N1C2CC(=O)CC1CN(c1nc(=O)n3c4c(c(-c5ccc(F)cc5F)c(C(F)(F)F)cc14)SCCC3)C2 [Example 451, 11-(2,4-difluorophenyl)-8-(9-(2-fluoroacryloyl)-7-oxo-3,9-diazabicyclo[3.3.1]nonan-3-yl)-10-(trifluoromethyl)-3,4-dihydro-2H,6H-[1,4]thiazepino[2,3,4-ij]quinazolin-6-one] as the compound, how does the “% CAF @ 10 uM, 1h” value read?
Answer: 61%

Question: C=CC(=O)N1C[C@H](C)N(c2nc(=O)n3c4c(c(-c5ccc(F)cc5F)c(C(F)(F)F)cc24)SC[C@@H]3CN2CCN(C3CC3)CC2)C[C@H]1C (single isomer, unassigned) [Example 580] was tested. Which “% CAF @ 10 uM, 1h” value did it give?
Answer: 91.5%

Question: How did the “% CAF @ 10 uM, 1h” value turn out when C=CC(=O)N1CCN(c2nc(=O)n3c4c(c(-c5ccc(F)cc5F)c(C(F)(F)F)cc24)S[C@@H](CN(C)C)C3)[C@@H](C)C1 [Example 442, (2S)-7-((S)-4-acryloyl-2-methylpiperazin-1-yl)-10-(2,4-difluorophenyl)-2-((dimethylamino)methyl)-9-(trifluoromethyl)-2,3-dihydro-5H-[1,4]thiazino[2,3,4-ij]quinazolin-5-one] was run?
Answer: 87%

Question: With CC#CC(=O)N1C2CC(=O)CC1CN(c1nc(=O)n3c4c(c(-c5ccc(F)cc5F)c(C(F)(F)F)cc14)SCC3)C2 [Example 453, 7-(9-(but-2-ynoyl)-7-oxo-3,9-diazabicyclo[3.3.1]nonan-3-yl)-10-(2,4-difluorophenyl)-9-(trifluoromethyl)-2,3-dihydro-5H-[1,4]thiazino[2,3,4-ij]quinazolin-5-one] as the compound, how does the “% CAF @ 10 uM, 1h” value read?
Answer: 37%

Question: How did the “% CAF @ 10 uM, 1h” value turn out when C=CC(=O)N1C[C@H](C)N(c2nc(=O)n3c4c(c(-c5ccc(F)cc5)c(C(F)(F)F)cc24)SC[C@@H]3COCCOC)C[C@H]1C [Example 512, (S)-7-((2S,5R)-4-acryloyl-2,5-dimethylpiperazin-1-yl)-10-(4-fluorophenyl)-3-((2-methoxyethoxy)methyl)-9-(trifluoromethyl)-2H-[1,4]thiazino[2,3,4-ij]quinazolin-5(3H)-one] was run?
Answer: 66.1%

Question: Which “% CAF @ 10 uM, 1h” value does the source give for C=CC(=O)N1CCN(c2nc(=O)n3c4c(c(-c5cc(Cl)c(F)cc5F)c(Cl)cc24)SC[C@@H]3CN2CCN(CC)CC2)[C@@H](C)C1 [Example 412, (3S)-7-((S)-4-acryloyl-2-methylpiperazin-1-yl)-9-chloro-10-(5-chloro-2,4-difluorophenyl)-3-((4-ethylpiperazin-1-yl)methyl)-2H-[1,4]thiazino[2,3,4-ij]quinazolin-5(3H)-one] here?
Answer: 73.6%

Question: [2H]C1([2H])N(C(=O)C=C)C([2H])([2H])C([2H])([2H])N(c2nc(=O)n3c4c(c(-c5ccc(F)cc5F)c(C(F)(F)F)cc24)SCC2(COC2)C3)C1([2H])[2H] [Example 589, 8′-(4-Acryloylpiperazin-1-yl-2,2,3,3,5,5,6,6-d8)-11′-(2,4-difluorophenyl)-10′-(trifluoromethyl)-2′H,4′H,6′H-spiro[oxetane-3,3′-[1,4]thiazepino[2,3,4-ij]quinazolin]-6′-one] was tested. Which “% CAF @ 10 uM, 1h” value did it give?
Answer: 92.9%

Question: How did the “% CAF @ 10 uM, 1h” value turn out when C=CC(=O)N1CCN(c2nc(=O)n3c4c(c(-c5ccc(F)cc5)c(Cl)cc24)SC[C@@H](OC)C3)[C@@H](C)C1 [Example 537, (S)-8-((S)-4-acryloyl-2-methylpiperazin-1-yl)-10-chloro-11-(4-fluorophenyl)-3-methoxy-3,4-dihydro-2H,6H-[1,4]thiazepino[2,3,4-ij]quinazolin-6-one] was run?
Answer: 96%

Question: How did the “% CAF @ 10 uM, 1h” value turn out when C=CC(=O)N1CCN(c2nc(=O)n3c4c(c(-c5cc(Cl)c(F)cc5F)c(C(F)(F)F)cc24)SC[C@H](OC)C3)[C@@H](C)C1 [Example 533, (3R)-8-((S)-4-acryloyl-2-methylpiperazin-1-yl)-11-(5-chloro-2,4-difluorophenyl)-3-methoxy-10-(trifluoromethyl)-3,4-dihydro-2H,6H-[1,4]thiazepino[2,3,4-ij]quinazolin-6-one] was run?
Answer: 96%

Question: C=CC(=O)N1C[C@H](C)N(c2nc(=O)n3c4c(c(-c5cc(F)c(F)cc5F)c(Cl)cc24)SC[C@@H]3CN2CCC3(CC2)COC3)C[C@H]1C (atropisomer, axis not shown) [Example 485, (3S,10R)-3-((2-oxa-7-azaspiro[3.5]nonan-7-yl)methyl)-7-((2S,5R)-4-acryloyl-2,5-dimethylpiperazin-1-yl)-9-chloro-10-(2,4,5-trifluorophenyl)-2,3-dihydro-5H-[1,4]thiazino[2,3,4-ij]quinazolin-5-one] was tested. Which “% CAF @ 10 uM, 1h” value did it give?
Answer: 45%

Question: How did the “% CAF @ 10 uM, 1h” value turn out when C=CC(=O)N1CCN(c2nc(=O)n3c4c(c(-c5c(F)cc(F)cc5F)c(Cl)cc24)SC[C@H]3CN2CCN(CC)CC2)[C@@H](C)C1 [Example 424, (R)-7-((S)-4-acryloyl-2-methylpiperazin-1-yl)-9-chloro-3-((4-ethylpiperazin-1-yl)methyl)-10-(2,4,6-trifluorophenyl)-2H-[1,4]thiazino[2,3,4-ij]quinazolin-5(3H)-one] was run?
Answer: 13.9%

Question: C=CC(=O)N1C[C@H](C)N(c2nc(=O)n3c4c(c(-c5cc(F)c(F)cc5F)c(Cl)cc24)SC[C@@H]3CC2CCN(CC(F)F)CC2)C[C@H]1C [Example 476, (3S)-7-((2S,5R)-4-acryloyl-2,5-dimethylpiperazin-1-yl)-9-chloro-3-((1-(2,2-difluoroethyl)piperidin-4-yl)methyl)-10-(2,4,5-trifluorophenyl)-2H-[1,4]thiazino[2,3,4-ij]quinazolin-5(3H)-one] was tested. Which “% CAF @ 10 uM, 1h” value did it give?
Answer: 53.8%

Same assay, conditions: 10 uM, 60 min; Table 2a

Question: For C=CC(=O)N1CCN(c2nc(=O)n3c4c(c(-c5cc(F)cc(F)c5)c(Cl)cc24)SCC3)[C@@H](C)C1 [Example 66, (S)-7-(4-acryloyl-2-methylpiperazin-1-yl)-9-chloro-10-(3,5-difluorophenyl)-2,3-dihydro-5H-[1,4]thiazino[2,3,4-ij]quinazolin-5-one], which “% CAF 10 uM @ 60 min” value is on record?
Answer: 91%

Same assay, conditions: 10 uM, 1 h; Table 3

Question: For C=CC(=O)N1CCN(c2nc(=O)n3c4c(c(-c5c(O)cccc5F)c(Cl)cc24)SCC3)[C@@H](C)C1 [Example 168, 7-((S)-4-acryloyl-2-methylpiperazin-1-yl)-9-chloro-10-(2-fluoro-6-hydroxyphenyl)-2,3-dihydro-5H-[1,4]thiazino[2,3,4-ij]quinazolin-5-one], which “% CAF @ 10 uM, 1h” value is on record?
Answer: 30.6%

Question: Which “% CAF @ 10 uM, 1h” value does the source give for C=CC(=O)N1CCN(c2nc(=O)n3c4c(c(-c5cc(F)cc(F)c5)c(Cl)cc24)SCC3)[C@@H](C)C1 [Example 66, (S)-7-(4-acryloyl-2-methylpiperazin-1-yl)-9-chloro-10-(3,5-difluorophenyl)-2,3-dihydro-5H-[1,4]thiazino[2,3,4-ij]quinazolin-5-one] here?
Answer: 70%

Question: For C=C(F)C(=O)N1CCN(c2nc(=O)n3c4c(c(-c5ccc(Cl)c(F)c5)c(Cl)cc24)SCC3)[C@@H](C)C1 [Example 78, (S)-9-chloro-10-(4-chloro-3-fluorophenyl)-7-(4-(2-fluoroacryloyl)-2-methylpiperazin-1-yl)-2,3-dihydro-5H-[1,4]thiazino[2,3,4-ij]quinazolin-3-one], which “% CAF @ 10 uM, 1h” value is on record?
Answer: 6.7%

Question: For C=CC(=O)N1C[C@H](C)N(c2nc(=O)n3c4c(c(-c5ccc(F)cc5F)c(Cl)cc24)S(=O)(=O)CC3)C[C@H]1C (atropisomer, axis not shown) [Example 178, (R)-7-((2S,5R)-4-acryloyl-2,5-dimethylpiperazin-1-yl)-9-chloro-10-(2,4-difluorophenyl)-2,3-dihydro-5H-[1,4]thiazino[2,3,4-ij]quinazolin-5-one 1,1-dioxide], which “% CAF @ 10 uM, 1h” value is on record?
Answer: 58.3%

Question: With C=CC(=O)N1CCN(c2nc(=O)n3c4c(c(-c5ccc(F)cc5F)c(Cl)cc24)SCC3)C[C@H]1CS(C)(=O)=O [Example 187, 7-((S)-4-acryloyl-3-((methylsulfonyl)methyl)piperazin-1-yl)-9-chloro-10-(2,4-difluorophenyl)-2,3-dihydro-5H-[1,4]thiazino[2,3,4-ij]quinazolin-5-one] as the compound, how does the “% CAF @ 10 uM, 1h” value read?
Answer: 83.7%

Question: How did the “% CAF @ 10 uM, 1h” value turn out when C=CC(=O)N1C[C@H](C)N(c2nc(=O)n3c4c(c(-c5ccc(F)cc5F)c(Cl)cc24)S(=O)(=O)CC3)C[C@H]1C [Example 184, 7-((2S,5R)-4-acryloyl-2,5-dimethylpiperazin-1-yl)-9-chloro-10-(2,4-difluorophenyl)-2,3-dihydro-5H-[1,4]thiazino[2,3,4-ij]quinazolin-5-one 1,1-dioxide] was run?
Answer: 91.4%

Question: How did the “% CAF @ 10 uM, 1h” value turn out when C=CC(=O)N1CCN(c2nc(=O)n3c4c(c(-c5ccc(F)cc5F)c(C(F)(F)F)cc24)SCC3)[C@@H](C)C1 [Example 141, 7-((S)-4-acryloyl-2-methylpiperazin-1-yl)-10-(2,4-difluorophenyl)-9-(trifluoromethyl)-2,3-dihydro-5H-[1,4]thiazino[2,3,4-ij]quinazolin-5-one] was run?
Answer: 95.7%
